From patent publication US20140356287A1, “PLOD2 as a Target of Intervention for Sarcoma Metastasis” (The Trustees of the University of Pennsylvania, priority 2013, published 2014) come the findings set out here.

“Also recorded” adds a separate entry of the source.

The subject of the data set is KIA cells. The experiment in a line: Subcutaneous KIA cell allograft in nude mice (primary tumor, lung metastasis, collagen). It counts as in vivo. The following applies: 1 mg/kg or 3 mg/kg intraperitoneal every other day for 3 weeks. The source says: Generation of Hif1α^fl/fl mice (Ryan et al., 2000, Cancer Res 60(15):4010-5) and LSL-Kras^G12D/+Trp53^fl/fl mice has been previously described (Kirsch et al., 2007, Nat Med 13(8):992-7). These mice were crossed to create the LSL-Kras^G12D/+Trp53^fl/flHif1a^fl/fl animals. Soft tissue sarcomas were generated by intramuscular injection of a calcium phosphate precipitate of Ad-Cre (Gene Transfer Vector Core, University of Iowa). For transplant tumors 1×106 KIA (derived from LSL-Kras^G12D/+[…] tumors) were injected subcutaneously into the flanks of nu/nu mice (Charles River Laboratories). In each experiment 10 mice per experimental group were used with each mouse bearing two subcutaneous tumors. Tumors developed after 3-5 days, were monitored every other day, and animals were euthanized after 20-30 days. For in vivo lung metastasis analysis lung tissues were removed, and sections were stained with hematoxylin and eosin. Images were acquired using a Nikon SMZ800 stereoscope with a Nikon 1200F digital camera and Nikon Act-1 software. The ratio of total metastatic sarcoma foci to total lung area (% tumor burden) was determined using ImagePro 6.3 software (Media Cybernetics Inc.). Additionally, the percent of animals in the entire cohort with metastatic foci was evaluated along with total number of metastatic foci per experiment and the averae number of sarcoma lung foci per lung in each experiment. For Minoxidil injections, allografts and drug treatments were started simultaneously. Mice bearing subcutaneous KIA tumors on each flank were intraperitoneal injected with PBS, 1 mg/kg Minoxidil, or 3 mg/kg Minoxidil every other day unless the animals were euthanized, the tumors and lungs removed.
Immunohistochemistry of tissue sections with antibodies to HIF1α (Abcam) and Lectin (Vector Labs) was performed using enzymatic Avidin-Biotin Complex (ABC)-diaminobenzidine (DAB) staining (Vector Labs). Nuclei were counterstained with hematoxylin. […] Collagen was quantified using Image-Pro software. […]

Take `Nc1cc(N2CCCCC2)nc(N)[n+]1[O-]` [Minoxidil]: the overall animal health/weight entry is “no effect; also recorded: unaffected”, the primary tumor volume entry is on record as “no effect” and the “tumor weight (mass)” value is “no effect”.
